Legend:
[1] = tested on: primary glioblastoma cell line HT12347; assay: Light microscopy, primary glioblastoma cells; assay type: cell-based; conditions: HT12347, TTFields and MLN8237 combination vs control and each alone (FIGS. 10A-10D)
Method: Cells were treated with control, AZD1152, TTFields, or a combination of both. […] FIGS. 10A-10D show exemplary light microscopy images of primary glioblastoma cells HT12347 after the following treatment: 10A: control; 10B: after […] treatment; 10C: after treatment with MLN8237 alone; 10D: after treatment with TTFields and MLN8237.

[2] = tested on: glioblastoma cell line HT 12347; assay: PI (propium iodide) staining of DNA content, primary glioblastoma cells; assay type: cell-based; conditions: HT 12347, TTFields combined with MLN8237 (FIGS. 9A-9E)
Text: FIGS. 9A-9E show exemplary PI (propium iodide) staining results showing DNA content after treatment with TTFields alone, […] alone, and in combination in glioblastoma cell line HT 12347 with corresponding cell cycle histograms. FIG. 9A is a summary, with 2n in light gray, 4n in dark gray, and r>4n in black; FIG. 9B is a cell cycle histogram for the control; FIG. 9C is a cell cycle histogram for […] treatment alone; FIG. 9D is a cell cycle histogram for MLN8237 alone; and FIG. 9E is a cell cycle histogram for TTFields combined with MLN8237.

U87-MG = assay: Normalized cell count, U87-MG (additional study); assay type: cell-based, human; conditions: compared to each treatment alone, Mann-Whitney-U-test, p<0.01
Method: In addition to U87-MG cells, primary tumor-cell lines were established from glioblastoma tissue taken intraoperatively. TTFields (1.6 V/cm RMS, 200 kHz) were applied for 72 hours using the Inovitro™ system. AZD1152 was added to the media in concentrations of up to 100 nmol/l. Cell counts, cell cycle and clonogenic potential were determined at the end of treatment. Primary tumor-cell-lines were analyzed. In addition, MLN8237, an Aurora A kinase inhibitor, was tested in concentrations up to 50 nmol/l for the treatment of U87-MG and primary tumor-cell lines to further establish Aurora kinase inhibition as a target for combination therapy with TTFields. […] FIGS. 8A-8B show the normalized cell counts after treatment with TTFields and MLN8237, alone and in combination, on U87-MG (FIG. 8A) and primary glioblastoma cell line HT12347 (FIG. 8B). The exemplary box plots show the normalized cell count after treatment with TTFields alone, MLN8237 alone, and combination of MLN8237 and TTFields in U87 cells ([…]), and in HT12347 glioblastoma cells (FIG. 8B). The greatest reduction in the percentage of living cells in relation to the control is shown with the combination of TTFields and MLN8237.

[3] = tested on: primary glioblastoma cell line HT12347; assay: Normalized cell count, primary glioblastoma cells; assay type: cell-based; conditions: primary glioblastoma cell-lines, compared to each treatment alone; Mann-Whitney-U-test, p<0.01
Method: In addition to U87-MG cells, primary tumor-cell lines were established from glioblastoma tissue taken intraoperatively. TTFields (1.6 V/cm RMS, 200 kHz) were applied for 72 hours using the InovitroTM system. AZD1152 was added to the media in concentrations of up to 100 nmol/l. Cell counts, cell cycle and clonogenic potential were determined at the end of treatment. Primary tumor-cell-lines were analyzed. In addition, MLN8237, an Aurora A kinase inhibitor, was tested in concentrations up to 50 nmol/l for the treatment of U87-MG and primary tumor-cell lines to further establish Aurora kinase inhibition as a target for combination therapy with TTFields. […] FIGS. 5A and 5B show the normalized cell counts after treatment with TTFields and AZD1152, alone and in combination, on U87-MG (FIG. 5A) and primary glioblastoma cell line HT12347 (FIG. 5B) at the indicated AZD1152 concentration and […] frequency. The exemplary box plots show the normalized cell count after treatment with AZD1152 alone, TTFields alone, and combination of AZD1152 and TTFields. “***” marks significant differences where p<0.001. […] FIGS. 8A-8B show the normalized cell counts after treatment with TTFields and MLN8237, alone and in combination, on U87-MG (FIG. 8A) and primary glioblastoma cell line HT12347 (FIG. 8B). […]

## COc1cc(Nc2ncc3c(n2)-c2ccc(Cl)cc2C(c2c(F)cccc2OC)=NC3)ccc1C(=O)O [MLN8237, Alisertib]
[1]
  number of cells in light microscopy images: lowest number of cells
[2]
  multinuclear and polyploid cells (PI staining, DNA content): higher number of multinuclear and polyploid cells
U87-MG
  cell numbers after combined treatment of MLN8237 and TTFields: significant decrease of cell numbers
[3]
  cell numbers after combined treatment of MLN8237 and TTFields: significant decrease of cell numbers

Reference: patent US11298422B2, “Treating tumors with TTFields and an aurora kinase inhibitor” (Novocure Limited, priority 2018, dated 2022)
